Data published in PMC10518255, “A first-in-class pan-lysyl oxidase inhibitor impairs stromal remodeling and enhances gemcitabine response and survival in pancreatic cancer” (Nature Cancer, 2023).
“And” between values parts separate entries of the source, which are not always exact repeats. Identical values can stand only once.

What was measured:
F4/80 = assay: Immunohistochemistry of end-point KPC tumors: macrophage infiltration; format: in vivo, mouse; settings: KPC tumours at endpoint; individual replicate values (Extended Data 6G)
Description: All tissues or matrices, including patient TMAs, were fixed in 10% buffered formalin and embedded in paraffin. The 4-μm sections of samples were deparaffinized with xylene and rehydrated in graded ethanol washes. For immunohistochemistry, Bond Dewax Solution (AR9222) was used. Antigen retrieval was performed using Bond RX H2(30) protocol: HIER 30 min ER1 (citrate pH 6) OR ER2 (EDTA pH 9) at 100 °C. Slides were quenched in BOND Polymer Refine Detection (Leica Biosystems DS9800). […] Slides were digitized on an Aperio slide scanner and representative areas per tumor acquired and analyzed by researchers blinded to the conditions of the experiment.
Extended Data Fig. 6 PXS-5505 in combination with gemcitabine in a KPC model. a. Quantification of proliferating cells (Ki67 positive nuclear staining) in KPC tumors at end point, treated as indicated. 5 fields of view (500 μm × 500 μm) per mouse and 10 mice per cohort were scored. […] Quantification of percent coverage of αSMA positive staining in KPC tumors at end point, treated as indicated. 3 fields of view (1000 μm × 1000 μm) per mouse and 10 mice per cohort were scored. […] Quantification of percent coverage of PDGFR-ß positive staining in KPC tumors at end point, treated as indicated. 3 fields of view (1000 μm × 1000 μm) per mouse and 10 mice per cohort were scored. […] 3 fields of view (500 μm × 500 μm) per mouse and 10 mice per cohort were scored. […]

cytochrome P450 enzymes = assay: Cytochrome P450 inhibition
[1] = test system: human pancreatic cancer CAF remodeled organotypic matrices; assay: Matrix stiffness by unconfined compression testing of organotypic matrices; format: cell-based; settings: human pancreatic cancer CAFs, PXS-5505 during remodeling
Description: Unconfined compression of 3D organotypic collagen matrices treated with or without PXS-5505 was performed on a TA Instruments Dynamic Hybrid Rheometer (DHR-3, TA Instruments). Remodeled collagen matrices were placed between upper and lower parallel plate geometries. A constant linear compressive rate of 5 µm s^−1 was applied to the samples and axial force (N) and gap (mm) were collected every 0.01 s. Data were processed and a stress–strain curve for each replicate was obtained. Bulk elastic modulus (kPa) was obtained as the gradient of the linear region of the stress–strain curve corrected for cross-sectional area of sample and normalized to control. Data points represent biological replicates. […]
Extended Data Fig. 4 PXS-5505 inhibits collagen cross-linking by PDAC CAFs in vitro resulting in decreased cancer cell invasion. a. […] Chemical structures of lysyl oxidase family catalyzed hydroxyallysine or allysine residues and the subsequent divalent and trivalent bonds that are formed that can be quantified by mass spectrometry. c. […] Relative fold expression of LOXL family members compared to LOX were determined by 2^–∆∆Ct approach. f. […] Comparison of measured area of matrices between control, PXS-5120 and PXS-5505 treatment groups (n = 3) over time. i. […] Representative images of invasion of KPC cancer cells into a contracted organotypic matrix as determined by H&E staining. […]

Cl.Cl.NC/C=C(\F)CS(=O)(=O)c1cccc2cccnc12.O [PXS-5505, (Z)-3-fluoro-4-(quinolin-8-ylsulfonyl)but-2-en-1-amine dihydrochloride monohydrate]
macrophage infiltration (F4/80 positive staining) (F4/80): 5 and 7
inhibition of cytochrome P450 enzymes (cytochrome P450 enzymes): does not inhibit
stiffness (bulk modulus) of remodeled organotypic matrices [1]: decrease in stiffness (bulk modulus)
